Test results published in patent US6737383B1, “Herbicidal oxadiazolidines” (priority 1999, dated 2004).

How the values were obtained:
[1] = tested on: rape; assay: Test B pre/postemergence rape; type: in vivo, Brassica napus
Summary of the method: (§1)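 Herbicidal effect was estimated by eye on a ten-point control scale after plants spent twelve to sixteen days in a greenhouse following soil or foliar treatment. Foliar sprays targeted plants at one to four leaves; all doses were formulated in a non-phytotoxic solvent with surfactant.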

[2] = tested on: wheat; assay: Test B pre/postemergence wheat; type: in vivo, Triticum aestivum
Summary of the method: as §1

[3] = tested on: surinam grass; assay: Test B pre/postemergence surinam grass; type: in vivo, Brachiaria decumbens
Summary of the method: as §1

[4] = tested on: rice; assay: Test B flood test rice; type: in vivo, Oryza sativa
Summary of the method: (§2)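 Flood test on plants grown to the 2-leaf stage; treated plants kept in greenhouse twelve to sixteen days, then visually rated against controls on a 0 (no effect) to 10 (complete control) scale.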

[5] = tested on: smallflower flatsedge; assay: Test B flood test smallflower flatsedge; type: in vivo, Cyperus difformis
Summary of the method: as §2

[6] = tested on: morningglory; assay: Test B pre/postemergence morningglory; type: in vivo, Ipomoea hederacea
Summary of the method: as §1

[7] = tested on: purple nutsedge; assay: Test B pre/postemergence purple nutsedge; type: in vivo, Cyperus rotundus
Summary of the method: as §1

[8] = tested on: corn; assay: Test B pre/postemergence corn; type: in vivo, Zea mays
Summary of the method: as §1

[9] = tested on: pigweed; assay: Test B pre/postemergence pigweed; type: in vivo, Amaranthus retroflexus
Summary of the method: as §1

[10] = tested on: cocklebur; assay: Test B pre/postemergence cocklebur; type: in vivo, Xanthium strumarium; settings: for Cocklebur plant response rating: Postemergence; for Plant response rating, Cocklebur: Preemergence
Summary of the method: as §1

[11] = tested on: duck salad; assay: Test B flood test duck salad; type: in vivo, Heteranthera limosa
Summary of the method: as §2

[12] = tested on: blackgrass; assay: Test B pre/postemergence blackgrass; type: in vivo, Alopecurus myosuroides
Summary of the method: as §1

[13] = tested on: crabgrass; assay: Test B pre/postemergence crabgrass; type: in vivo, Digitaria sanguinalis
Summary of the method: as §1

[14] = tested on: velvetleaf; assay: Test B pre/postemergence velvetleaf; type: in vivo, Abutilon theophrasti
Summary of the method: as §1

[15] = tested on: sugar beet; assay: Test B pre/postemergence sugar beet; type: in vivo, Beta vulgaris
Summary of the method: as §1

[16] = tested on: giant foxtail; assay: Test B pre/postemergence giant foxtail; type: in vivo, Setaria faberii
Summary of the method: as §1

[17] = Postemergence, Rate 62 g/ha, scale 0 to 10, 0 is no effect, 10 is complete control
[18] = Postemergence, Rate 250 g/ha, scale 0 to 10, 0 no effect, 10 complete control
[19] = Preemergence, Rate 62 g/ha, scale 0 to 10, 0 is no effect, 10 is complete control
[20] = Preemergence, Rate 125 g/ha, scale 0 to 10 (0 no effect, 10 complete control)
[21] = Preemergence, Rate 250 g/ha, scale of 0 to 10 where 0 is no effect and 10 is complete control
[22] = Preemergence, Rate 500 g/ha, scale 0 (no effect) to 10 (complete control)
[23] = Rate 125 g/ha, Postemergence, scale 0 to 10, 0 no effect, 10 complete control
[24] = Rate 500 g/ha, Postemergence, 0 to 10 scale (0 no effect, 10 complete control)
[25] = Rate 125 g/ha, Postemergence section (flood test species), scale 0 to 10, 0 no effect, 10 complete control
[26] = Rate 500 g/ha, Postemergence section of Table B, 0 to 10 scale (0 no effect, 10 complete control)
[27] = flood test, listed under Postemergence, Rate 250 g/ha, scale 0 to 10, 0 no effect, 10 complete control
[28] = Rate 62 g/ha, scale 0 to 10, 0 is no effect, 10 is complete control

`Cc1ccc(-n2c(=O)on(C(=O)N(c3ccc(F)cc3F)C(C)C)c2=O)c(C)c1` [Compound 24] was tested, and the “Rape plant response rating” value [1, 17] was 0, the “Rape plant response rating” value [1, 18] was 0 and the “Plant response rating, Rape” value [1, 19] was 0. The “Plant response rating, Rape” value [1, 20] was 0, the “Plant response rating, Rape” value [1, 21] was 0 and the “Rape plant response rating” value [1, 22] was 1. The “Rape plant response rating” value [1, 23] was 0, the “Rape plant response rating” value [1, 24] was 2 and the “Wheat plant response rating” value [2, 17] was 0. For the same compound, the “Wheat plant response rating” value [2, 18] was 0, the “Plant response rating, Wheat” value [2, 19] was 0 and the “Plant response rating, Wheat” value [2, 20] was 0. The “Plant response rating, Wheat” value [2, 21] was 0, the “Wheat plant response rating” value [2, 22] was 0 and the “Wheat plant response rating” value [2, 23] was 0. The “B. signalgrass plant response rating” value [3, 17] was 0, the “B. signalgrass plant response rating” value [3, 18] was 3 and the “Plant response rating, B. signalgrass” value [3, 19] was 0. The “Plant response rating, B. signalgrass” value [3, 20] was 4, the “Plant response rating, B. signalgrass” value [3, 21] was 4 and the “B. signalgrass plant response rating” value [3, 22] was 6. The “B. signalgrass plant response rating” value [3, 23] was 3, the “B. signalgrass plant response rating” value [3, 24] was 3 and the “Rice plant response rating” value [4, 17] was 0. For the same compound, the “Rice plant response rating” value [4, 25] was 0, the “Rice plant response rating” value [4, 26] was 0 and the “Rice plant response rating” value [4, 27] was 0. The “S. Flatsedge plant response rating” value [5, 17] was 0, the “S. Flatsedge plant response rating” value [5, 25] was 0 and the “S. Flatsedge plant response rating” value [5, 27] was 0. The “Morningglory plant response rating” value [6, 17] was 9, the “Morningglory plant response rating” value [6, 18] was 10 and the “Plant response rating, Morningglory” value [6, 19] was 0. For the same compound, the “Plant response rating, Morningglory” value [6, 20] was 0, the “Plant response rating, Morningglory” value [6, 21] was 0 and the “Morningglory plant response rating” value [6, 22] was 0. For the same compound, the “Morningglory plant response rating” value [6, 23] was 9, the “Nutsedge plant response rating” value [7, 17] was 0 and the “Nutsedge plant response rating” value [7, 18] was 0. For the same compound, the “Plant response rating, Nutsedge” value [7, 19] was 0, the “Plant response rating, Nutsedge” value [7, 20] was 0 and the “Plant response rating, Nutsedge” value [7, 21] was 0. For the same compound, the “Nutsedge plant response rating” value [7, 22] was 0, the “Nutsedge plant response rating” value [7, 23] was 0 and the “Nutsedge plant response rating” value [7, 24] was 0. For the same compound, the “Corn plant response rating” value [8, 17] was 0, the “Corn plant response rating” value [8, 18] was 0 and the “Plant response rating, Corn” value [8, 19] was 0. The “Plant response rating, Corn” value [8, 20] was 0, the “Plant response rating, Corn” value [8, 21] was 0 and the “Corn plant response rating” value [8, 22] was 0. The “Corn plant response rating” value [8, 23] was 0, the “Corn plant response rating” value [8, 24] was 0 and the “Redroot pigweed plant response rating” value [9, 17] was 0. The “Redroot pigweed plant response rating” value [9, 18] was 6, the “Plant response rating, Redroot pigweed” value [9, 19] was 2 and the “Plant response rating, Redroot pigweed” value [9, 20] was 6. For the same compound, the “Plant response rating, Redroot pigweed” value [9, 21] was 6, the “Redroot pigweed plant response rating” value [9, 22] was 9 and the “Redroot pigweed plant response rating” value [9, 23] was 2. For the same compound, the “Redroot pigweed plant response rating” value [9, 24] was 6, the “Cocklebur plant response rating” value [10, 28] was 0 and the “Cocklebur plant response rating” value ([10]; Rate 250 g/ha, scale 0 to 10, 0 no effect, 10 complete control) was 1. The “Plant response rating, Cocklebur” value [10, 28] was 0, the “Plant response rating, Cocklebur” value ([10]; Rate 125 g/ha, scale 0 to 10 (0 no effect, 10 complete control)) was 0 and the “Plant response rating, Cocklebur” value ([10]; Rate 250 g/ha, scale of 0 to 10 where 0 is no effect and 10 is complete control) was 0. For the same compound, the “Cocklebur plant response rating” value ([10]; Rate 125 g/ha, scale 0 to 10, 0 no effect, 10 complete control) was 0, the “Cocklebur plant response rating” value ([10]; Rate 500 g/ha, 0 to 10 scale (0 no effect, 10 complete control)) was 2 and the “Ducksalad plant response rating” value [11, 17] was 0. For the same compound, the “Ducksalad plant response rating” value [11, 25] was 0, the “Ducksalad plant response rating” value [11, 26] was 0 and the “Ducksalad plant response rating” value [11, 27] was 0. The “Blackgrass plant response rating” value [12, 17] was 0, the “Blackgrass plant response rating” value [12, 18] was 3 and the “Plant response rating, Blackgrass” value [12, 19] was 0. For the same compound, the “Plant response rating, Blackgrass” value [12, 20] was 1, the “Plant response rating, Blackgrass” value [12, 21] was 4 and the “Blackgrass plant response rating” value [12, 22] was 4. For the same compound, the “Blackgrass plant response rating” value [12, 23] was 1, the “Blackgrass plant response rating” value [12, 24] was 6 and the “Crabgrass plant response rating” value [13, 17] was 2. The “Crabgrass plant response rating” value [13, 18] was 9, the “Plant response rating, Crabgrass” value [13, 19] was 0 and the “Plant response rating, Crabgrass” value [13, 20] was 6. For the same compound, the “Plant response rating, Crabgrass” value [13, 21] was 9, the “Crabgrass plant response rating” value [13, 22] was 10 and the “Crabgrass plant response rating” value [13, 23] was 8. The “Crabgrass plant response rating” value [13, 24] was 10, the “Velvetleaf plant response rating” value [14, 17] was 0 and the “Velvetleaf plant response rating” value [14, 18] was 0. The “Plant response rating, Velvetleaf” value [14, 19] was 0, the “Plant response rating, Velvetleaf” value [14, 20] was 0 and the “Plant response rating, Velvetleaf” value [14, 21] was 0. The “Velvetleaf plant response rating” value [14, 22] was 0, the “Velvetleaf plant response rating” value [14, 23] was 0 and the “Sugarbeets plant response rating” value [15, 17] was 0. The “Sugarbeets plant response rating” value [15, 18] was 0, the “Plant response rating, Sugarbeets” value [15, 19] was 0 and the “Plant response rating, Sugarbeets” value [15, 20] was 3. The “Plant response rating, Sugarbeets” value [15, 21] was 4, the “Sugarbeets plant response rating” value [15, 22] was 9 and the “Sugarbeets plant response rating” value [15, 23] was 0. For the same compound, the “Giant foxtail plant response rating” value [16, 17] was 0, the “Giant foxtail plant response rating” value [16, 18] was 3 and the “Plant response rating, Giant foxtail” value [16, 19] was 6. For the same compound, the “Plant response rating, Giant foxtail” value [16, 20] was 7, the “Plant response rating, Giant foxtail” value [16, 21] was 9 and the “Giant foxtail plant response rating” value [16, 22] was 9. The “Giant foxtail plant response rating” value [16, 23] was 2 and the “Giant foxtail plant response rating” value [16, 24] was 8.
